{"source": "patent US20040214803A1", "about": "“Use of vitamin d3 analogue for the treatment of autoimmune diabetes” (priority 2001, published 2004)", "key": {"[1]": {"system": "NOD mice", "experiment": "Type 1 DM development in NOD mice (blood glucose monitoring)", "format": "in vivo, mouse", "conditions": "NOD female mice, 0.03 μg/Kg per os", "description": "The non-obese (NOD)/Lt mice used for the experiments were purchased from Charles River Laboratories (Calco, Italy). All mice were kept under specific pathogen-free conditions. Glucose levels in the tail venous blood were quantified using a EUROFlash (Lifescan, Issy les Moulineaux, France). A diagnosis of diabetes was after two sequential glucose measurements higher than 200 mg/dl.\n1,25-dihydroxy-16,23Z-diene-26,27-hexafluoro-19-nor vitamin D3, was dissolved in ethanol (1 mg/ml) and then diluted in miglyol 812. NOD/Lt. The mice were dosed orally with vehicle (miglyol 812) alone or vehicle containing Compound A (0,03 μg/Kg body weight) 5×/week from 8 to 12 or from 8 to 16 weeks of age.\nNOD female mice were treated […] with Compound A (0.03 μg/Kg body weight per os) or vehicle from 8 to 12 or 16 weeks of age and glycemia levels were monitored until 38 weeks of age. […] About 90% of vehicle-treated controls were diabetic by 38 weeks of age compared to only 50% of mice treated with Compound A from 8 to 12 weeks of age. A longer treatment, from 8 to 16 weeks of age, afforded higher protection, and only 16% of NOD mice developed type 1 DM.\nFIG. 1. (page 1/9) Compound A administration to 8-week-old NOD mice inhibits type 1 DM development. NOD mice were treated 5×/week with vehicle (open circles) or with 0.03 μg/Kg Compound A p.o. (filled circles) from 8 to 16 weeks of age, or from 8 to 12 weeks of age (filled squares). Type 1 DM development was monitored twice weekly by measurement of blood glucose levels. The P values were calculated by Mann-Whitney U test."}, "[2]": {"system": "CD4+ T cells", "experiment": "Intracellular cytokine production by CD4+ cells from treated NOD mice (PMA and ionomycin, flow cytometry)", "format": "in vivo, mouse", "description": "After removal of all visible pancreatic lymph nodes, pancreata were individually digested in 3 ml HBSS containing 1 mg/ml collagenase IV (Sigma), by shaking (200 rpm) at 37° C. for 15 min. Single cell suspensions were collected after diluting the enzyme with ice-cold HBSS containing 5% FCS (FETAL CALF SERUM) and removal of the aggregates by settling for 2 min on ice. Aggregates were further digested with collagenase IV at 0.5 mg/ml for 10 min, and at 0.25 mg/ml for 6 min. Single cell suspensions were washed three times, and passed over a MASC Pre-separation filter (Miltenyi Biotec) to remove cell aggragetes and clumps. Single cell suspensions were incubated with anti-CD4 mAb-coated Microbeads (Miltenyi Biotec) and applied onto Mini-MACS columns (Miltenyi Biotec). This procedure yielded a positive fraction containing CD4^+ cells. Immediately after purification cells were stimulated with PMA (PHORBOL MYRISTIC ACETATE) and ionomycin in complete medium, fixed, and stained the next day for intracellular production of cytokines.\nCells were stained for IFN-γ, IL-4, IL-10 and IL-2 as previously described (Trembleau, S., et al. Eur J Immunol. 1997,27:2330-2339). Reagents for intracytoplasmic staining contained 1% FCS, 0.5% saponin (Sigma), and 0.1% sodium azide. All incubations were performed at room temperature. Cells were washed, pre-incubated for 10 min with PBS(phosphate buffered saline)/FCS/saponin, and then incubated with FITC(fluorescein isothiocyanate)-labeled rat anti-mouse IFN-γ (XMG1.2) and PE (phycoerythrin)-labeled rat anti-IL-2 (JE56-5H4), rat anti-mouse IL-4 (11B11), or PE-labeled rat anti-mouse IL-10 (JES5-16E3). Isotype controls were FITC- and PE-labeled rat IgG1 (R3-34). After 30 min, cells were washed twice with PBS/FCS/saponin and then with PBS containing 5% of FCS without saponin to allow membrane closure. The cell surface was then stained with CyChrome-labeled anti-CD4 (L3T4) for 15 min at room temperature. Analysis was performed with a FACScan flow cytometer (Becton Dickinson, Mountain View, Calif.) equipped with CellQuest software, and 10,000 events were acquired.\nTo identify mechanisms accounting for the reduced type 1 DM development in 1,25-dihydroxy-16,23Z-diene-26,27-hexafluoro-19-nor vitamin D3-treated NOD mice, the cytokines produced by CD4^+ T cells in the spleen, pancreatic lymph node and pancreas-infiltrating cells of […] NOD mice, treated from 8 to 16 weeks of age with Compound A or vehicle were analyzed.\nFIG. 4. (page 4/9) Cytokine production by CD4^+ cells from spleen, pancreatic lymph node and pancreas-infiltrating cells. Spleen (A), pancreatic lymph node (B) and pancreas-infiltrating (C) CD4^+ cells were obtained from untreated 8 week-old or 20 week-old NOD mice treated 5×/week p.o. from 8 to 16 weeks of age with vehicle or with 0.03 μg/Kg Compound A. Positively selected CD4^+ cells (2×10^5 cells/well) were stimulated with PMA and ionomycin and analyzed by flow cytometry for IFN-γ (abscissa) and IL-2, IL-4 or IL-10 (ordinate) production. Acquisition was performed on CD4^+ cells. Percentage of positive cells, set according to the isotype-matched controls (not shown), are shown in the top corner of each quadrant. Dot plots are from a representative experiment out of four performed. Bar graphs represent the mean ±SE of four independent experiments using pooled cells from 3 to 4 mice. The P values were calculated by Mann-Whitney U test (* indicates P<0.05 vs. 8 week-old NOD mice)."}, "[3]": {"conditions": "CD4+ T cells from pancreatic lymph nodes, vs 30 week-old vehicle-treated or 8 week-old NOD mice"}}, "data": [{"smiles": "C[C@H](C/C=C\\C(O)(C(F)(F)F)C(F)(F)F)C1=CC[C@H]2/C(=C/C=C3C[C@@H](O)C[C@H](O)C3)CCC[C@]12C", "note": "[Compound A, 1,25-dihydroxy-16,23Z-diene-26,27-hexafluoro-19-nor vitamin D3]", "values": [{"measurement": "incidence of disease compared to controls", "setting": "[1]; from 8 to 12 or 16 weeks of age", "result": "significantly lower"}, {"measurement": "diabetic by 38 weeks of age", "setting": "[1]; treated from 8 to 12 weeks of age, vehicle controls about 90%", "result": 50, "unit": "%"}, {"measurement": "developed type 1 DM (by 38 weeks of age)", "setting": "[1]; treated from 8 to 16 weeks of age, vehicle controls about 90%", "result": 16, "unit": "%"}, {"measurement": "reduction of IFN-γ-producing cells", "setting": "[2]; [3]", "result": 3, "unit": "fold"}, {"measurement": "reduction of IL-2 producing cells", "setting": "[2]; [3]", "result": 10, "unit": "fold"}, {"measurement": "IL-4-producing cells", "setting": "[2]; CD4+ cells, means of three experiments, 0.7±0.2% in 8 weeks old, 0.9±0.2% vehicle", "result": "2.5±0.3", "unit": "%"}, {"measurement": "IFN-γ-producing cells", "setting": "[2]; CD4+ pancreas-infiltrating cells, compared with vehicle-treated mice", "result": "similarly lower"}, {"measurement": "IL-10-producing CD4+ cells", "setting": "[2]; mouse, in vivo", "result": "No increase"}]}]}
